Experimental data taken from ChEMBL document CHEMBL4270577, “Synthesis, anticancer activity and molecular modeling studies of 1,2,4-triazole derivatives as EGFR inhibitors” (Eur J Med Chem, 2018).

Key:
[1] = test system: CCRF-CEM; test: Growth inhibition of human CCRF-CEM cells at 10 uM incubated for 48 hrs by sulforhodamine B assay relative to control; format: functional; conditions: read-out: GI
[2] = test system: HL-60(TB); test: Growth inhibition of human HL-60(TB) cells at 10 uM incubated for 48 hrs by sulforhodamine B assay relative to control; format: functional; conditions: HL-60, 48 h, read-out: GI
[3] = test system: K562; test: Growth inhibition of human K562 cells at 10 uM incubated for 48 hrs by sulforhodamine B assay relative to control; format: functional; conditions: K562, 48 h, read-out: GI
[4] = test system: MOLT-4; test: Growth inhibition of human MOLT4 cells at 10 uM incubated for 48 hrs by sulforhodamine B assay relative to control; format: functional; conditions: MOLT-4, 48 h, read-out: GI
[5] = test system: RPMI-8226; test: Growth inhibition of human RPMI8226 cells at 10 uM incubated for 48 hrs by sulforhodamine B assay relative to control; format: functional; conditions: RPMI-8226, 48 h, read-out: GI
[6] = test system: SR; test: Growth inhibition of human SR cells at 10 uM incubated for 48 hrs by sulforhodamine B assay relative to control; format: functional; conditions: read-out: GI
[7] = test system: A549; test: Growth inhibition of human A549/ATCC cells at 10 uM incubated for 48 hrs by sulforhodamine B assay relative to control; format: functional; conditions: A549, 48 h, read-out: GI
[8] = test system: HOP-92; test: Growth inhibition of human HOP92 cells at 10 uM incubated for 48 hrs by sulforhodamine B assay relative to control; format: functional; conditions: HOP-92, 48 h, read-out: GI
[9] = test system: NCI-H226; test: Growth inhibition of human NCI-H226 cells at 10 uM incubated for 48 hrs by sulforhodamine B assay relative to control; format: functional; conditions: NCI-H226, 48 h, read-out: GI
[10] = test system: NCI-H460; test: Growth inhibition of human NCI-H460 cells at 10 uM incubated for 48 hrs by sulforhodamine B assay relative to control; format: functional; conditions: NCI-H460, 48 h, read-out: GI
[11] = test system: NCI-H522; test: Growth inhibition of human NCI-H522 cells at 10 uM incubated for 48 hrs by sulforhodamine B assay relative to control; format: functional; conditions: NCI-H522, 48 h, read-out: GI
[12] = test system: COLO 205; test: Growth inhibition of human COLO205 cells at 10 uM incubated for 48 hrs by sulforhodamine B assay relative to control; format: functional; conditions: COLO 205, 48 h, read-out: GI
[13] = test system: HCT-15; test: Growth inhibition of human HCT15 cells at 10 uM incubated for 48 hrs by sulforhodamine B assay relative to control; format: functional; conditions: HCT-15, 48 h, read-out: GI
[14] = test system: SW-620; test: Growth inhibition of human SW620 cells at 10 uM incubated for 48 hrs by sulforhodamine B assay relative to control; format: functional; conditions: SW-620, 48 h, read-out: GI
[15] = test system: U-251; test: Growth inhibition of human U251 cells at 10 uM incubated for 48 hrs by sulforhodamine B assay relative to control; format: functional; conditions: U-251, 48 h, read-out: GI
[16] = test system: LOX IMVI; test: Growth inhibition of human LOXIMVI cells at 10 uM incubated for 48 hrs by sulforhodamine B assay relative to control; format: functional; conditions: read-out: GI
[17] = test system: SK-MEL-5; test: Growth inhibition of human SK-MEL-5 cells at 10 uM incubated for 48 hrs by sulforhodamine B assay relative to control; format: functional; conditions: SK-MEL-5, 48 h, read-out: GI
[18] = test system: UACC-257; test: Growth inhibition of human UACC257 cells at 10 uM incubated for 48 hrs by sulforhodamine B assay relative to control; format: functional; conditions: UACC-257, 48 h, read-out: GI
[19] = test system: UACC-62; test: Growth inhibition of human UACC62 cells at 10 uM incubated for 48 hrs by sulforhodamine B assay relative to control; format: functional; conditions: UACC-62, 48 h, read-out: GI
[20] = test system: A498; test: Growth inhibition of human A498 cells at 10 uM incubated for 48 hrs by sulforhodamine B assay relative to control; format: functional; conditions: A498, 48 h, read-out: GI
[21] = test system: ACHN; test: Growth inhibition of human ACHN cells at 10 uM incubated for 48 hrs by sulforhodamine B assay relative to control; format: functional; conditions: read-out: GI
[22] = test system: SN12C; test: Growth inhibition of human SN12C cells at 10 uM incubated for 48 hrs by sulforhodamine B assay relative to control; format: functional; conditions: read-out: GI
[23] = test system: TK-10; test: Growth inhibition of human TK10 cells at 10 uM incubated for 48 hrs by sulforhodamine B assay relative to control; format: functional; conditions: TK-10, 48 h, read-out: GI
[24] = test system: UO-31; test: Growth inhibition of human UO31 cells at 10 uM incubated for 48 hrs by sulforhodamine B assay relative to control; format: functional; conditions: UO-31, 48 h, read-out: GI
[25] = test system: PC-3; test: Growth inhibition of human PC3 cells at 10 uM incubated for 48 hrs by sulforhodamine B assay relative to control; format: functional; conditions: PC-3, 48 h, read-out: GI
[26] = test system: DU-145; test: Growth inhibition of human DU145 cells at 10 uM incubated for 48 hrs by sulforhodamine B assay relative to control; format: functional; conditions: DU-145, 48 h, read-out: GI
[27] = test system: MCF7; test: Growth inhibition of human MCF7 cells at 10 uM incubated for 48 hrs by sulforhodamine B assay relative to control; format: functional; conditions: MCF7, 48 h, read-out: GI
[28] = test system: MDA-MB-231; test: Growth inhibition of human MDA-MB-231/ATCC cells at 10 uM incubated for 48 hrs by sulforhodamine B assay relative to control; format: functional; conditions: MDA-MB-231, 48 h, read-out: GI
[29] = test system: Hs-578T; test: Growth inhibition of human Hs 578T cells at 10 uM incubated for 48 hrs by sulforhodamine B assay relative to control; format: functional; conditions: read-out: GI
[30] = test system: MIA PaCa-2; test: Antiproliferative activity against human MIAPaCa2 cells after 48 hrs by propidium iodide staining-based fluorometric analysis; format: functional, cell-based; conditions: MIA PaCa-2, 48 h
[31] = test system: NCI-H460; test: Antiproliferative activity against human H460 cells after 48 hrs by propidium iodide staining-based fluorometric analysis; format: functional, cell-based; conditions: NCI-H460, 48 h
[32] = target: Epidermal growth factor receptor (Homo sapiens, UniProt P00533); test: Inhibition of His6-tagged recombinant EGFR cytoplasmic domain (645 to 1186 residues) (unknown origin) expressed in baculovirus infected Sf9 insect cells preincubated for 10 mins followed by ATP-MgCl2 addition and measured after 1 hr by DELFIA/time-resolved fluorometric analysis
[33] = test system: IGROV-1; test: Growth inhibition of human IGROV1 cells at 10 uM incubated for 48 hrs by sulforhodamine B assay relative to control; format: functional; conditions: IGROV-1, 48 h, read-out: GI
[34] = test system: SK-OV-3; test: Growth inhibition of human SKOV3 cells at 10 uM incubated for 48 hrs by sulforhodamine B assay relative to control; format: functional; conditions: SK-OV-3, 48 h, read-out: GI
[35] = test system: HCC 2998; test: Growth inhibition of human HCC2998 cells at 10 uM incubated for 48 hrs by sulforhodamine B assay relative to control; format: functional; conditions: HCC 2998, 48 h, read-out: GI
[36] = test system: Malme-3M; test: Growth inhibition of human MALME-3M cells at 10 uM incubated for 48 hrs by sulforhodamine B assay relative to control; format: functional; conditions: read-out: GI

Sequence of Epidermal growth factor receptor (P00533 whole entry, the tested form may be a part): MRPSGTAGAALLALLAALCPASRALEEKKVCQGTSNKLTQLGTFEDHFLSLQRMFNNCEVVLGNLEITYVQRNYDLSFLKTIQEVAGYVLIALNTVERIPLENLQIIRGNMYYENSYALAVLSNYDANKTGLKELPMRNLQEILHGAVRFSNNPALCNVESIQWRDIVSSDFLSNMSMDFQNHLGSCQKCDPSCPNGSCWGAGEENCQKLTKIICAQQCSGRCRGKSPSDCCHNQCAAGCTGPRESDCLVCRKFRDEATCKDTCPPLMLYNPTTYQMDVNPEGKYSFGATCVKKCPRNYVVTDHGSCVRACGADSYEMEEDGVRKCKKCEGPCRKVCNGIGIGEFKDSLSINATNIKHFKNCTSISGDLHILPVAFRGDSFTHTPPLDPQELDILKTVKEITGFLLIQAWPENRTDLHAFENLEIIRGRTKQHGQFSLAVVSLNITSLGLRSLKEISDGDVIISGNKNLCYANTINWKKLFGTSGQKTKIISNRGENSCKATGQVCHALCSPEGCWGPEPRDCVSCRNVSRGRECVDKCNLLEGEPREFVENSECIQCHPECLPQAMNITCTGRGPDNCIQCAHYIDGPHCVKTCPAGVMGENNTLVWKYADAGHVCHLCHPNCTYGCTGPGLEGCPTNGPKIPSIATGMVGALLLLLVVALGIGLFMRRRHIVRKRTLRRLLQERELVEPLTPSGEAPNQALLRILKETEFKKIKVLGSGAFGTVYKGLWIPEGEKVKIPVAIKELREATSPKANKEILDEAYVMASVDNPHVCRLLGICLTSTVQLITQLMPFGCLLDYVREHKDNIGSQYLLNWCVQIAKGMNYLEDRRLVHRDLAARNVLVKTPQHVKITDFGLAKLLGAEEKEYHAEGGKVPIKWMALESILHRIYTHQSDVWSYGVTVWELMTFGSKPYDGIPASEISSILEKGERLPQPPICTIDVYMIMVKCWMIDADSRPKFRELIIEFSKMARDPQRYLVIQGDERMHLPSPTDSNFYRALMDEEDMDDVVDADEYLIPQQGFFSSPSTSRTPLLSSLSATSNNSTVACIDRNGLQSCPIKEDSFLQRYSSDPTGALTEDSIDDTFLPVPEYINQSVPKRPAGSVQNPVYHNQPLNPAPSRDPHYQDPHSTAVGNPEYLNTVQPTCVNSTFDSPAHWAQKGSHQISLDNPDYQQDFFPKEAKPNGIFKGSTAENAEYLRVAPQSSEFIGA

Compound | inhibition of growth at 10 µM [1] [%] | inhibition of growth at 10 µM [3] [%] | inhibition of growth at 10 µM [4] [%] | inhibition of growth at 10 µM [5] [%] | inhibition of growth at 10 µM [7] [%] | inhibition of growth at 10 µM [8] [%] | inhibition of growth at 10 µM [9] [%] | inhibition of growth at 10 µM [10] [%] | inhibition of growth at 10 µM [11] [%] | inhibition of growth at 10 µM [12] [%] | inhibition of growth at 10 µM [13] [%] | inhibition of growth at 10 µM [14] [%] | inhibition of growth at 10 µM [15] [%] | inhibition of growth at 10 µM [16] [%] | inhibition of growth at 10 µM [17] [%] | inhibition of growth at 10 µM [18] [%] | inhibition of growth at 10 µM [19] [%] | inhibition of growth at 10 µM [20] [%] | inhibition of growth at 10 µM [21] [%] | inhibition of growth at 10 µM [22] [%] | further results
COc1cc(-c2nc3sc(-c4ccccc4)cn3n2)cc(OC)c1OC | 49 | 39 | 44 | 42 | 23 | 50 | 23 | 18 | 30 | 15 | 42 | 6 | 32 | 33 | 41 | 10 | 31 | 29 | 15 | 19 | inhibition of growth at 10 µM [2]: 37%; inhibition of growth at 10 µM [6]: 65%; inhibition of growth at 10 µM [23]: 6%; inhibition of growth at 10 µM [24]: 43%; inhibition of growth at 10 µM [25]: 53%; inhibition of growth at 10 µM [26]: 9%; inhibition of growth at 10 µM [27]: 23%; inhibition of growth at 10 µM [28]: 41%; inhibition of growth at 10 µM [29]: 26%; IC50 [30]: 4.7 µM; IC50 [31]: 4.8 µM; IC50 [32]: 2.8 µM
c1ccc(-c2nc3sc(-c4ccccc4)cn3n2)cc1 | 13 | 11 | 11 | 14 | 10 | 25 | 27 | 6 | 19 | 5 | 8 | 5 | 6 | 16 | 20 | 13 | 33 | 13 | 14 | 20 | inhibition of growth at 10 µM [2]: 21%; inhibition of growth at 10 µM [6]: 9%; inhibition of growth at 10 µM [33]: 43%; inhibition of growth at 10 µM [34]: 5%; inhibition of growth at 10 µM [24]: 53%; inhibition of growth at 10 µM [25]: 37%; inhibition of growth at 10 µM [26]: 15%; inhibition of growth at 10 µM [27]: 61%; inhibition of growth at 10 µM [28]: 35%; inhibition of growth at 10 µM [29]: 9%; IC50 [30]: 9.2 µM; IC50 [31]: 8.3 µM; IC50 [32]: 9.8 µM
Clc1ccc(-c2cn3nc(-c4ccccc4)nc3s2)cc1 | 6 | 24 | 8 | 10 | 36 | 53 | 32 | 37 | 29 | 18 | 9 | 13 | 25 | 19 | 21 | 15 | 18 | 52 | 49 | 22 | inhibition of growth at 10 µM [2]: 15%; inhibition of growth at 10 µM [35]: 10%; inhibition of growth at 10 µM [36]: 10%; inhibition of growth at 10 µM [33]: 55%; inhibition of growth at 10 µM [34]: 64%; inhibition of growth at 10 µM [23]: 18%; inhibition of growth at 10 µM [24]: 40%; inhibition of growth at 10 µM [25]: 31%; inhibition of growth at 10 µM [26]: 14%; inhibition of growth at 10 µM [27]: 35%; inhibition of growth at 10 µM [28]: 57%; inhibition of growth at 10 µM [29]: 40%; IC50 [30]: 6.5 µM; IC50 [31]: 5.1 µM; IC50 [32]: 7.2 µM
COc1ccc(-c2nc3sc(-c4ccc(Cl)cc4)cn3n2)cc1 | 30.5 | 38.5 | 17.4 | 55.1 | -30 | 79.5 | 49.9 | -39 | 39 | 47.5 | 28 | 40.4 | -67.9 | 45.8 | 27.4 | 15.4 | 31.4 | -25.8 | -74 | 94.7 | inhibition of growth at 10 µM [6]: 48.9%; inhibition of growth at 10 µM [35]: 21.4%; inhibition of growth at 10 µM [36]: 49.2%; inhibition of growth at 10 µM [33]: 92.9%; inhibition of growth at 10 µM [34]: 50.5%; inhibition of growth at 10 µM [23]: -30.8%; inhibition of growth at 10 µM [24]: -7.46%; inhibition of growth at 10 µM [25]: 41.9%; inhibition of growth at 10 µM [26]: 19.3%; inhibition of growth at 10 µM [27]: 51.1%; inhibition of growth at 10 µM [28]: 86.7%; inhibition of growth at 10 µM [29]: 73%; IC50 [30]: 2.6 µM; IC50 [31]: 1.6 µM; IC50 [32]: 1.5 µM
COc1ccc(-c2nc3sc(-c4ccccc4)cn3n2)cc1 | 35 | 76 | 49 | 21 | 49 | 32 | 23 | 65 | 70 | 63 | 69 | 64 | 21 | 45 | 65 | 28 | 42 | 56 | 32 | 37 | inhibition of growth at 10 µM [2]: 32%; inhibition of growth at 10 µM [6]: 58%; inhibition of growth at 10 µM [35]: 22%; inhibition of growth at 10 µM [36]: 32%; inhibition of growth at 10 µM [33]: 52%; inhibition of growth at 10 µM [34]: 32%; inhibition of growth at 10 µM [24]: 38%; inhibition of growth at 10 µM [25]: 33%; inhibition of growth at 10 µM [26]: 16%; inhibition of growth at 10 µM [27]: 74%; inhibition of growth at 10 µM [28]: 53%; inhibition of growth at 10 µM [29]: 40%; IC50 [30]: 4.9 µM; IC50 [31]: 6.9 µM; IC50 [32]: 5.6 µM
